From patent US20240262848A1, “HETEROCYCLIC COMPOUNDS, COMPOSITIONS THEREOF, AND METHODS OF TREATMENT THEREWITH” (BeiGene, Ltd., priority 2022, published 2024)

Assays:
[1] = molecular target: GST-tagged GDP-loaded KRAS G12D (amin acids 1-188) (Homo sapiens, UniProt P01116, G12D); experiment: KRAS G12D probe displacement assay (TR-FRET); assay type: binding; conditions: Table 5; KRAS G12D 0.5 nM, biotinylated probe 2 4 nM
Protocol: Plates are incubated at 24° C. for 1 hr.

[2] = tested on: pERK1/2(THR202/TYR204) level in AsPC-1 cell line; experiment: KRAS G12D pERK assay in AsPC-1 cells (HTRF); assay type: cell-based; conditions: Homo sapiens, ASPC1, Table 5, 2 h compound treatment
Protocol: AsPC-1 cell line was used in this study. Cells were maintained in RPMI-1640 supplemented with 10% fetal bovine serum (Thermo Fisher), 50 units/ml, penicillin and streptomycin (Thermo Fisher) and kept at 37° C. in a humidified atmosphere of 5% CO2 in air. Cells were reinstated from frozen stocks that were laid down within 30 passages from the original cells purchased. 30000 cells per well were seeded into a 96-well plate and incubated overnight. Cells were treated with a 10-point dilution series. The final compound concentration is from 0 to 10 μM. After 2 h compound treatment, cells were lysed, and the pERK1/2(THR202/TYR204) level in the cell lysates was detected by HTRF kit (Cisbio). In brief, a total of 16 μL of cell lysate from each well of a 96-well plate was transferred to a 384-well white assay plate. Lysate from each well was incubated with 2 μL of Eu3+-cryptate (donor) labeled anti-phospho-ERK1/2 and 2 μL of D2 (acceptor) labeled anti-phospho-ERK1/2 antibodies (Cisbio) overnight in dark at room temperature. When the donor and acceptor are in close proximity, excitation of the donor with laser triggers a Fluorescence Resonance Energy Transfer (FRET) towards the acceptor, which in turn fluoresces at 655 nm wavelength. FRET signals were measured using a PHERAstar FSX reader (BMG Labtech). IC50 determination was performed by fitting the curve of percent inhibition versus the log of the inhibitor concentration using Dotmatics.

[3] = tested on: pERK1/2(THR202/TYR204) level in SW620 cell line; experiment: KRAS G12V pERK assay in SW620 cells (HTRF); assay type: cell-based; conditions: Homo sapiens, SW-620, Table 4, 2 hrs compound treatment
Protocol: SW620 cell line was used in this study. Cells were maintained in RPMI 1640 supplemented with 10% fetal bovine serum (Thermo Fisher), 50 units/mL penicillin and streptomycin (Thermo Fisher) and kept at 37° C. in a humidified atmosphere of 5% CO2 in air. Cells were reinstated from frozen stocks that were laid down within 30 passages from the original cells purchased. 40000 cells per well were seeded into a 96-well plate and incubated overnight. Cells were treated with a 10-point dilution series. The final compound concentration is from 0 to 10 μM. After 2 hrs compound treatment, cells were lysed, and the pERK1/2(THR202/TYR204) level in the cell lysates was detected by HTRF kit (Cisbio). In brief, a total of 16 μL of cell lysate from each well of a 96-well plate was transferred to a 384-well white assay plate. Lysate from each well was incubated with 2 μL of Eu3+-cryptate (donor) labeled anti-phospho-ERK1/2 and 2 μL of D)2 (acceptor) labeled anti-phospho-ERK1/2 antibodies (Cisbio) overnight in dark at room temperature. When donor and acceptor are in close proximity, excitation of the donor with laser triggers a Fluorescence Resonance Energy Transfer (FRET) towards the acceptor, which in turn fluoresces at 655 nm wavelength. FRET signals were measured using a PHERAstar FSX reader (BMG Labtech). IC50 determination was performed by fitting the curve of percent inhibition versus the log of the inhibitor concentration using Dotmatics.

[4] = molecular target: GST-tagged GDP-loaded KRAS G12V (amino acids 1-169) (Homo sapiens, UniProt P01116, G12V); experiment: KRAS G12V probe displacement assay (TR-FRET); assay type: binding; conditions: Table 4; KRAS G12V 2 nM, biotinylated probe 2 2.5 nM
Protocol: Plates are incubated at 24 °C for 1 hr. […] After 1 hr incubation at 24° C.

GST-tagged GDP-loaded KRAS G12V (amino acids 1-169), sequence (P01116 1-169 isoform P01116-2 G12V): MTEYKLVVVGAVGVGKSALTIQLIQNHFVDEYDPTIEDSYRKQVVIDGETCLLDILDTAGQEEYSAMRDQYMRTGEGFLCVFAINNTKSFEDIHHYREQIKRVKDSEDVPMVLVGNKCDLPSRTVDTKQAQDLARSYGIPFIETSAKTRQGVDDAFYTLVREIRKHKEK
GST-tagged GDP-loaded KRAS G12D (amin acids 1-188), sequence (P01116 1-188 isoform P01116-2 G12D): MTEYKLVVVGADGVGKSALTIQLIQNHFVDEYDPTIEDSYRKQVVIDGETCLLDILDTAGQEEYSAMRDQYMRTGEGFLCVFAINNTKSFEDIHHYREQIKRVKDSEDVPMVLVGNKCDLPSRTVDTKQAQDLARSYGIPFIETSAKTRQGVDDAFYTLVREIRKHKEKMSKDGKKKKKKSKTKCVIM

| Compound | IC50 [1] | IC50 [2] | IC50 [3] | IC50 [4] |
| --- | --- | --- | --- | --- |
| Nc1cc(Cl)c(C(F)(F)F)c(-c2nc3c4c(nc(OC[C@@]56CCCN5C[C@H](F)C6)nc4c2F)N([C@@H]2CCNC2)CCCO3)c1 [Example 41, 3-chloro-5-(4-fluoro-2-(((2R,7aS)-2-fluorotetrahydro-1H-pyrrolizin-7a(5H)-yl)methoxy)-11-((R)-pyrrolidin-3-yl)-8,9,10,11-tetrahydro-7-oxa-1,3,6,11-tetraazacycloocta[de]naphthalen-5-yl)-4-(trifluoromethyl)aniline] | 34 nM |  |  |  |
| CC(CN(C)C)N1CCCOc2nc(-c3cc(N)cc(Cl)c3C(F)(F)F)c(F)c3nc(OC[C@@]45CCCN4C[C@H](F)C5)nc1c23 (stereo partly drawn) [Example 40, 3-chloro-5-(11-(1-(dimethylamino)propan-2-yl)-4-fluoro-2-(((2R,7aS)-2-fluorotetrahydro-1H-pyrrolizin-7a(5H)-yl)methoxy)-8,9,10,11-tetrahydro-7-oxa-1,3,6,11-tetraazacycloocta[de]naphthalen-5-yl)-4-(trifluoromethyl)aniline] | 7.6 nM | 2000 nM |  |  |
| CN1c2nc(OC[C@@]34CCCN3C[C@H](F)C4)nc3c(F)c(-c4cc(N)cc(Cl)c4C(F)(F)F)nc(c23)OCC2CNCC21 (stereo partly drawn) [Example 27, 3-chloro-5-(4-fluoro-2-(((2R,7aS)-2-fluorotetrahydro-1H-pyrrolizin-7a(5H)-yl)methoxy)-12-methyl-8a, 9,10,11,11a, 12-hexahydro-8H-7-oxa-1,3,6,10,12-pentaazacyclopenta[5,6]cycloocta[1,2,3-de]naphthalen-5-yl)-4-(trifluoromethyl)aniline] | 0.95 nM | 836 nM |  |  |
| CNCCN1CCCOc2nc(-c3cc(N)cc(Cl)c3C(F)(F)F)c(F)c3nc(OC[C@@]45CCCN4C[C@H](F)C5)nc1c23 [Example 17, 3-chloro-5-(4-fluoro-2-(((2R,7aS)-2-fluorotetrahydro-1H-pyrrolizin-7a(5H)-yl)methoxy)-11-(2-(methylamino)ethyl)-8,9,10,11-tetrahydro-7-oxa-1,3,6,11-tetraazacycloocta[de]naphthalen-5-yl)-4-(trifluoromethyl)aniline] | 9.6 nM |  |  |  |
| CNCCN1c2nc(OC[C@@]34CCCN3C[C@H](F)C4)nc3c(F)c(-c4cc(N)cc(Cl)c4C(F)(F)F)nc(c23)OCC12CCC2 [Example 36, 3-chloro-5-(4′-fluoro-2′-(((2R,7aS)-2-fluorotetrahydro-1H-pyrrolizin-7a(5H)-yl)methoxy)-10′-(2-(methylamino)ethyl)-8′H, 10′H-7′-oxa-1′,3′,6′,10′-tetraazaspiro[cyclobutane-1,9′-cyclohepta[de]naphthalen]-1′(10a′), 2′0.3a′, 3 al′(6a′), 5′-pentaen-5′-yl)-4-(trifluoromethyl)aniline] | 1.1 nM | 2160 nM |  |  |
| CNCCN1c2nc(OC[C@@]34CCCN3C[C@H](F)C4)nc3c(F)c(-c4cc(N)cc(Cl)c4C(F)(F)F)nc(c23)OCCC1C (stereo partly drawn) [Example 20, 3-chloro-5-(4-fluoro-2-(((2R,7aS)-2-fluorotetrahydro-1H-pyrrolizin-7a(5H)-yl)methoxy)-10-methyl-11-(2-(methylamino)ethyl)-8,9,10,11-tetrahydro-7-oxa-1,3,6,11-tetraazacycloocta[de]naphthalen-5-yl)-4-(trifluoromethyl)aniline] | 0.43 nM | 1010 nM |  |  |
| CC1COc2nc(-c3cc(N)cc(Cl)c3C(F)(F)F)c(F)c3nc(OC[C@@]45CCCN4C[C@H](F)C5)nc(c23)N1C (stereo partly drawn) [Example 22, 3-chloro-5-(4-fluoro-2-(((2R,7aS)-2-fluorotetrahydro-1H-pyrrolizin-7a(5H)-yl)methoxy)-9,10-dimethyl-9,10-dihydro-8H-7-oxa-1,3,6,10-tetraazacyclohepta[de]naphthalen-5-yl)-4-(trifluoromethyl)aniline] |  |  | 303 nM | 6.8 nM |
| Cc1cc(N)cc(-c2nc3c4c(nc(OC[C@@]56CCCN5C[C@H](F)C6)nc4c2F)N(C)CCO3)c1C(F)(F)F [Example 3, 3-(4-fluoro-2-(((2R,7aS)-2-fluorotetrahydro-1H-pyrrolizin-7a(5H)-yl)methoxy)-10-methyl-9,10-dihydro-8H-7-oxa-1,3,6,10-tetraazacyclohepta[de]naphthalen-5-yl)-5-methyl-4-(trifluoromethyl)aniline] |  |  | 402 nM | 15 nM |
| CN1c2nc(OC[C@@]34CCCN3C[C@H](F)C4)nc3c(F)c(-c4cc(N)cc(Cl)c4C(F)(F)F)nc(c23)OC2CCCC21 (stereo partly drawn) [Example 45, 3-chloro-5-((7a, 10a-trans)-4-fluoro-2-(((2R,7aS)-2-fluorotetrahydro-1H-pyrrolizin-7a(5H)-yl)methoxy)-11-methyl-7a, 8,9,10,10a, 11-hexahydro-7-oxa-1,3,6,11-tetraazanaphtho[1,8-fg]azulen-5-yl)-4-(trifluoromethyl)aniline] |  |  | 82 nM | 2.7 nM |
| CN1c2nc(OCC3(C)CCC4COCCN4C3)nc3c(F)c(-c4cc(N)cc(Cl)c4C(F)(F)F)nc(c23)O[C@H]2COCC[C@@H]21 (stereo partly drawn) [Example 60, 3-chloro-5-((7aR,11aS)-4-fluoro-12-methyl-2-((7-methyloctahydropyrido[2,1-c][1,4]oxazin-7-yl)methoxy)-7a, 8,10,11,11a, 12-hexahydro-7,9-dioxa-1,3,6,12-tetraazapleiaden-5-yl)-4-(trifluoromethyl)aniline] |  |  | 20 nM | 0.63 nM |
| CC1CN(C)c2nc(OC[C@@]34CCCN3C[C@H](F)C4)nc3c(F)c(-c4cc(N)cc(Cl)c4C(F)(F)F)nc(c23)O1 (stereo partly drawn) [Example 12, 3-chloro-5-(4-fluoro-2-(((2R,7aS)-2-fluorotetrahydro-1H-pyrrolizin-7a(5H)-yl)methoxy)-8,10-dimethyl-9,10-dihydro-8H-7-oxa-1,3,6,10-tetraazacyclohepta[de]naphthalen-5-yl)-4-(trifluoromethyl)aniline] |  |  | 152 nM | 3.2 nM |
| CN1c2nc(OC[C@@]34CCCN3C[C@H](F)C4)nc3c(F)c(-c4ccc(F)c5sc(N)c(C#N)c45)c(Cl)c(c23)OCCC12COC2 [Example 28, 2-amino-4-(9′-chloro-11′-fluoro-2′-(((2R,7aS)-2-fluorotetrahydro-1H-pyrrolizin-7a(5H)-yl)methoxy)-4′-methyl-6′,7′-dihydro-4′H-spiro[oxetane-3,5′-[1,5]oxazocino[4,3,2-de]quinazolin]-10′-yl)-7-fluorobenzo[b]thiophene-3-carbonitrile] |  |  | 206 nM | 2.5 nM |
| CN1c2nc(OC[C@@]34CCCN3C[C@H](F)C4)nc3c(F)c(-c4cc(N)cc(Cl)c4C(F)(F)F)nc(c23)OCC12COC2 [Example 23, 3-chloro-5-(4-fluoro-2-(((2R,7aS)-2-fluorotetrahydro-1H-pyrrolizin-7a(5H)-yl)methoxy)-10-methyl-8H, 10H-7-oxa-1,3,6,10-tetraazaspiro[cyclohepta[de]naphthalene-9,3′-oxetan]-1(10a), 2,3a, 3a^1(6a), 5-pentaen-5-yl)-4-(trifluoromethyl)aniline] |  |  | 338 nM | 9.2 nM |
| CC1CCOc2nc(-c3cc(N)cc(Cl)c3C(F)(F)F)c(F)c3nc(OC[C@@]45CCCN4C[C@H](F)C5)nc(c23)N1C (stereo partly drawn) [Example 6, 3-chloro-5-(4-fluoro-2-(((2R,7aS)-2-fluorotetrahydro-1H-pyrrolizin-7a(5H)-yl)methoxy)-10,11-dimethyl-8,9,10,11-tetrahydro-7-oxa-1,3,6,11-tetraazacycloocta[de]naphthalen-5-yl)-4-(trifluoromethyl)aniline] |  |  | 63 nM | 1.8 nM |
